US9533937B2, “Use of metal scavengers for removal of ruthenium residues” (Apeiron Synthesis S.A., priority 2013, dated 2017)

Test: Solubility in solvents
Assay type: physicochemical

For `[C-]#[N+]CC(=O)[O-].[K+]` [CNCH2CO2K], the solubility in solvents was “well soluble only in very polar solvents such as water and alcohols”.
